Where two headings read alike, the source gives them in different places.
Experiments:
[1] = test system: calcified plaque in the coronary arteries
From the text: A coronary computed tomography (CT) calcium scan is a test to assess the build up of plaque (calcification) in the coronary arteries. Because calcium is a component of hard plaque and is a marker of coronary artery disease (CAD) such a scan can be used as a diagnostic tool for CAD. The amount of calcium detected on a CT scan, expressed as a calcium score, reflects the degree and extent of calcium deposits on the walls of coronary arteries. Once calcified plaque begins to accumulate on arterial walls the amount deposited increases logarithmically at a rate of 15% to 30% a year.
The calcium score is an indicator of potential heart risk. […] A higher score is indicative of an increased risk and cardiologists express concern of the possibility of a heart incident at various levels but especially at 400 or above. Some treatments such as the product Crestor®, claim to slow the rate of deposition of plaque.
(§1) The subject then took a 2.5 mL daily dose of a 23.8% (mg/L) solution of phosphoric acid composition comprising 183 mg of phosphorus for a period of twelve months. This represented 26% of the RDA of phosphorous (700 mg) for an adult.
(§2) The risk assessment assumed that the calcified plaque would increase at the usual anticipated rate of approximately 15% to 30% a year. They took a daily dose of 2.5 ml of a 23.8% (mg/L) phosphoric acid in water, (183 mg of phosphorus) for a period of six months. […] A third CT calcium scan was performed approximately three months after increasing the dose. This was eight months and twenty days after the initial dosing with phosphoric acid.
The subject takes Famotadine for acid reflux and continues to smoke “one or two cigars a week.” The subject began taking a daily dose of 3.75 ml of a 23.8% (mg/L) phosphoric acid solution.
They currently take lipid lowering medication. They began taking 3.75 ml of a 23.8% (mg/L) phosphoric acid solution shortly after […] CT Calcium Scan.
Their medications includes: Benicar®, Crestor®, Niaspan®, and Lovaza®. Two and a half months after having the first Calcium Score assessment they began taking a daily dose of 3.75 ml of a 23.8% (mg/L) phosphoric acid solution. […] Note, cadaver studies consistently indicate that smokers are more prone to advanced artery disease.

[2] = test system: soft plaque in the arteries; conditions: Example 2 subject; at the time of the third CT calcium scan; no CTA scan before treatment
From the text: At the same time the most recent CT calcium scan was done, a Computed Tomography Angiography (CTA) scan was also done with contrast dye to determine the amount of soft plaque in the arteries.

[3] = test system: coronary condition; conditions: Example 1 subject; after twelve months of 2.5 mL daily (183 mg phosphorus); baseline stress test positive
Procedure: (§3) The cardiac interventionist prescribed the same kind of drug therapy as above. A stress test was conducted at this time to provide a baseline for comparing with possible future stress tests.
as §1

[4] = test system: calcified plaque; conditions: Example 1 subject; two years after angiogram that showed extensive calcified plaque
Procedure: as §3, §1

[5] = Procedure: as §2
[6] = Example 1 subject; 2.5 mL daily (183 mg phosphorus)

bone density on bone scan [6]: normal bone density
SMILES: O=P(O)(O)O [phosphoric acid]
% Whose Ca Score Increased ([1]; All, sample size 5): 20%
calcium score ([1]; Example 1 subject (man, stent), 2.5 mL daily of 23.8% (mg/L) solution, 183 mg phosphorus, after one year, no base score): 29
probability of a heart attack in the next 10 years ([1]; Example 1 subject, after one year of 2.5 mL daily (183 mg phosphorus)): 10%
calcium score ([1]; Example 2 subject, initial score 181, 2.5 ml daily (183 mg phosphorus), second CT scan at six months): 181
calcium score ([1]; Example 2 subject, initial score 181, third scan eight months and twenty days after initial dosing, about three months after increase to 3.75 ml (274 mg phosphorus)): 179
calcium score ([1]; Example 3 subject, initial score 193, 3.75 ml daily of 23.8% (mg/L) solution, approximately six months): 122
reduction of calcium score ([1]; Example 3 subject, 193 to 122, approximately six months of 3.75 ml daily): 37%
calcium score ([1]; Example 4 subject, initial score 85, 3.75 ml of 23.8% (mg/L) solution, eight months): 83
calcium score lower than the initial score ([1]; Example 4 subject, 85 to 83, eight months): 2 points
annual rate of increase of calcium score ([1]; Example 5 subject): 13.4%
calcium score ([1]; Example 5 subject (heavy smoker), initial score 117, 3.75 ml daily of 23.8% (mg/L) solution, eight months after start): 130
increase of calcium score ([1]; Example 5 subject, 117 to 130): 11%
% Whose Ca Score Increased ([1]; Non-Smokers, sample size 4): 0%
% Whose Ca Score Increased ([1]; Smokers, sample size 1): 100%
soft plaque score [2]: 0
second stress echo test result [3]: negative
calcified plaque on CT Angiogram [4]: no calcified plaque except in the area of the stent
side-effects related to the phosphoric acid composition ([5]; Example 1 subject, 2.5 mL daily (183 mg phosphorus)): no side-effects
side effects at the higher dose level ([5]; Example 2 subject, daily dose 3.75 ml (274 mg phosphorus)): no side effects
